Data published in US8440641B2, “Phthalocyanine salt formulations” (Case Western Reserve University, priority 2009, dated 2013).

Legend:
Assay type in all cases: physicochemical
[1] = Qualitative solubility in representative organic solvents; details: for solubility in CH2Cl2: CH2Cl2, qualitative; for solubility in dimethylformamide / solubility in ethanol / solubility in hexanes / solubility in toluene: qualitative
[2] = Chemical stability (air, chromatography)
[3] = Salt concentration in polar and nonpolar solvents (Table 2)
[4] = Concentration of salt in solution, gel and film; details: Tween 80 21.6 mg
Text: The identification of water soluble phthalocyanine salts also makes possible the preparation of aqueous gel formulations of phthalocyanine salts. […] These phthalocyanine salt-containing gels provide gel formulations of phthalocyanine salts suitable for topical use. Thin films of the gels can also be dried to form coherent, stable, water-swellable films. These films provide formulations for phthalocyanine salt-containing patches that can be used for topical administration.

| solubility in CH2Cl2 [1] | solubility in dimethylformamide [1] | solubility in ethanol [1] | solubility in hexanes [1] | solubility in toluene [1] | time of hydrolysis by air to Pc 4 [2] | salt concentration, […] aqueous Tween 80 ([3]; […] aqueous Tween 80) | solubility in aqueous solution ([3]; aqueous solution, in words) | salt concentration, hexanes ([3]; hexanes) | solubility in hexanes and mineral oil ([3]; hexanes, mineral oil (Nujol), in words) | salt concentration, mineral oil ([3]; mineral oil) | product conc ([4]; film: Pc 4 0.33 mg, HEC 118 mg) | product conc ([4]; gel: Pc 4 0.33 mg, H2O 3.0 mL, HEC 118 mg) | product conc ([4]; solution: Pc 4 0.33 mg, H2O 3.0 mL) | Substance | stability on chromatography ([2]; Biobeads S-X3, CH2Cl2) |
| --- | --- | --- | --- | --- | --- | --- | --- | --- | --- | --- | --- | --- | --- | --- | --- |
| soluble | soluble | soluble | insoluble | moderately soluble | ≤ 2 h |  |  |  |  |  |  |  |  | [CH3C(O)C(O)OSiPcOSi(CH3)2(CH2)3NH(CH3)2]^+Cl^− [Compound 29] |  |
| soluble | soluble | soluble | insoluble | moderately soluble | ≤ 0.5 h |  |  |  |  |  |  |  |  | [ClSiPcOSi(CH3)2(CH2)3NH(CH3)2]^+Cl^− [Compound 28] |  |
| soluble | soluble | soluble | insoluble | moderately soluble |  | 0.165 mM | show solubility | 0.0006 mM | little | 0.0002 mM | ~0.2% | ~0.01% | 0.11 mg/mL | [HOSiPcOSi(CH3)2(CH2)3NH(CH2)21]^+[OC(O)CHOHCH2C(O)OH]^− [Compound 6] |  |
| soluble | soluble | soluble | insoluble | moderately soluble |  |  |  |  |  |  |  |  |  | [HOSiPcOSi(CH3)2(CH2)3NH(CH3)2]^+[(HOC(O)(CH2)10Si(CH3)2)(Si(CH3)2O)˜120(Si(CH3)2(CH2)10C(O)O]^− [Compound 16] | decomposed to Pc 4 and the carboxysiloxane |
